Measurements from US20050014144A1, “Methods” (priority 2001, published 2005).

System: P. aphanidermatum cytochrome b gene F129 and L129 alleles
Test: ARMS/Scorpion F129L SNP detection assay (Ct of allele selective primers on plasmid DNA templates)
Design: species or system Pythium aphanidermatum
Conditions: for ΔCt: between C and A plasmid template; for ΔCt / A Ct / C Ct: 2×10^6 molecules/ul; for A Ct: mutant (L129) plasmid template; for NTC amplification: no template (water only) control; for C Ct: wild type (F129) plasmid template; for Observed A:C ratio: plasmid templates 2×10^6 molecules/ul
Protocol: In all ARMS/Scorpion™ F129L SNP detection assays AmpliTaq Gold enzyme (Applied Biosystems) was included in the reaction mixes at 1 unit/25 μl reaction. The reaction mix also contained 1× buffer (10 mM Tris-HCl (pH8.3), 50 mM KCl, 3.5 mM MgCl2, 0.01% gelatine) and 100 μM dNTPs (Amersham Pharmacia Biotech). Amplifications were performed in an ABI Prism 7700 instrument for continuous fluorescence monitoring. A preliminary cycle of 95° C. for 10 minutes was performed followed by 50 cycles of 95° C. for 15 sec and 60° C. for 45 sec. Fluorescence was monitored during the annealing/extension stage throughout all cycles.
Primers were first validated for use in such analyses by using plasmid DNA, at various concentrations, as template. This was performed in order to check the specificity and sensitivity of the primer designs. Partial wild type cytochrome b gene sequence and the corresponding tract containing the F129L mutation amplified from two P. aphanidermatum isolates were cloned into the TA pCR2.1 vector (Invitrogen) as described previously in example 2. 150 ul of the bacterial culture, from the 10 transformants from each cloning event picked for Wizard Plus plasmid DNA Preparations (Promega) (see example 2), was saved prior to carrying out these preparations and stored at 4° C. Following sequence analysis wild type and mutant plasmid DNA samples that contained no sequence differences from the consensus sequence were noted. The bacterial culture from which these wild type and mutant plasmid DNA sequences originated was picked for plasmid DNA maxipreps (Qiagen) following the manufacturers protocol. The resulting plasmid DNA was quantified and diluted to a concentration of 1 ug/ul (2×10^11 molecules/ul) using sterile double distilled H2O.
The wild type and mutant plasmid DNA cassettes were diluted further to a concentration of 10 pg/ul (or 2×10^6 molecules/ul) in double distilled H2O and used as template to validate the specificity of the ARMS primers. Each ARMS primer was tested on wild type and mutant template as well as a no template (water only) control, under the PCR conditions described above. The Pt129-1 and Pt129-4 primers were preferred to the Pt129-2 and Pt129-3 and the Pt129-5 and Pt129-6 primers as duplicate PCRs gave more consistent results and were more specific. Wild type ARMS primer Pt129-1 gave a window of 15.27 cycles before amplification occurred on the inappropriate (mutant) template (FIG. 7). Mutant ARMS primer Pt129-4 gave a window of 16.96 cycles before amplification occurred on the inappropriate (wild type) template (FIG. 8).
Following the selection of a suitable ARMS primer for the detection of the point mutation the assay was validated further, so that its sensitivity of detection was fully understood before it was used to test biological samples for the presence of the L129 mutation. The first validation step was to establish if the window of specificity varied for the chosen ARMS primers over a 6 orders of magnitude range of wild type and mutant template DNA concentration. The wild type and mutant plasmid DNA cassettes described previously were diluted in Bovine Serum Albumin (BSA) (Fraction V Powder minimum 96%, Sigma A9647) at a concentration of 1 mg/ml through a 10 fold dilution series. The template concentrations covered the range 2×10^8 molecules/ul to 2×10^2 molecules/ul. Both plasmid DNA cassettes and a no template (water only) control were tested in the ARMS/Scorpion assay using primers Pt129-1, Pt129-4 and Pt129-S, as described above.
In all ARMS/Scorpion™ F129L SNP detection assays AmpliTaq Gold enzyme (Perkin-Elmer/ABI) was included in the reaction mixes at 1 unit/25 μl reaction. The reaction mix also contained 1× buffer (10 mM Tris-HCl (pH8.3), 50 mM KCl, 3.5 mM MgCl2, 0.01% gelatine) and 100 μM dNTPs (Amersham Pharmacia Biotech). Amplifications were performed in an ABI Prism 7700 instrument for continuous fluorescence monitoring. […]

| Substance | ΔCt | A Ct | NTC amplification | C Ct | Observed A:C ratio |
| --- | --- | --- | --- | --- | --- |
| Pt129-C1 (DNA ACCCCAAGGTAATACATAACCCAAG; chemistry not given here) | 16.81 | 42.6 | none | 25.79 | – |
| Pt129-S6 (DNA TTGACCCCAAGGTAATACATAACTC; chemistry not given here) | – | 20.84 | none | 20.43 | – |
| Pt129-A6 (DNA ACCCCAAGGTAATACATAACCCGTT; chemistry not given here) | 12.17 | 21.3 | none | 33.47 | – |
| Pt129-A9 (DNA ACCCCAAGGTAATACATAACGCACT; chemistry not given here) | 14.96 | 37.1 | none | 22.14 | – |
| Pt129-A1 (DNA ACCCCAAGGTAATACATAACCCAAT; chemistry not given here) | 5.79 | 26.54 | none | 32.33 | – |
| Pt129-A12 (DNA ACCCCAAGGTAATACATAACGCCTT; chemistry not given here) | 2.7 | 30.16 | none | 27.46 | – |
| Pt129-A7 (DNA ACCCCAAGGTAATACATAACTCACT; chemistry not given here) | 14.05 | 36.33 | none | 22.28 | – |
| Pt129-A5 (DNA ACCCCAAGGTAATACATAACCCCTT; chemistry not given here) | 11.09 | 21.42 | none | 32.51 | – |
| Pt129-A10 (DNA ACCCCAAGGTAATACATAACTCCTT; chemistry not given here) | 4.2 | 31.4 | none | 27.2 | – |
| Pt129-A8 (DNA ACCCCAAGGTAATACATAACACACT; chemistry not given here) | 13.76 | 35.87 | none | 22.11 | – |
| Pt129-A13 (DNA ACCCCAAGGTAATACATAACTCGTT; chemistry not given here) | 18.8 | 41.99 | none | 23.19 | – |
| Pt129-C3 (DNA ACCCCAAGGTAATACATAACCCAGG; chemistry not given here) | – | no A | none | 29.7 | all C |
| Pt129-A2 (DNA ACCCCAAGGTAATACATAACCCACT; chemistry not given here) | 13.14 | 20.87 | none | 34.01 | – |
| Pt129-A4 (DNA ACCCCAAGGTAATACATAACCCTTT; chemistry not given here) | 14.38 | 24.42 | none | 38.8 | – |
| Pt129-C2 (DNA ACCCCAAGGTAATACATAACCCACG; chemistry not given here) | 23.15 | 43.57 | none | 20.42 | – |
| Pt129-C6 (DNA ACCCCAAGGTAATACATAACCCGTG; chemistry not given here) | 24.54 | 44.17 | none | 19.63 | – |
| Pt129-C5 (DNA ACCCCAAGGTAATACATAACCCCTG; chemistry not given here) | 22.26 | 42.36 | none | 20.1 | – |
| Pt129-A3 (DNA ACCCCAAGGTAATACATAACCCAGT; chemistry not given here) | 8.91 | 31.29 | none | 40.2 | – |
| Pt129-A15 (DNA ACCCCAAGGTAATACATAACGCGTT; chemistry not given here) | – | no C | none | 30.05 | all A |
| Pt129-A11 (DNA ACCCCAAGGTAATACATAACACCTT; chemistry not given here) | 6.4 | 31.25 | none | 24.85 | – |
